From US5633276A, “Indoline derivatives, method of preparation and use” (Glaxo Group Limited, priority 1993, dated 1997)
pIC50, pKi: −log10 of the molar value. Counter-ions that a name gives are not always drawn.

Key:
[1] = system: rabbit retina; test: Melatonin agonist or antagonist activity in rabbit retina; format: cell-based; details: Oryctolagus cuniculus, method of Dubocovich
From the text: (§1) The results obtained for particular compounds according to the present invention are as follows:

[2] = target: melatonin receptors in chicken retinal membranes; test: Binding to melatonin receptors in chicken retinal membranes; details: method of Dubocovich and Takahashi, read-out: Chicken retina Ki
From the text: as §1

Q: How did the pIC50 [1] turn out when `CC(=O)NCCN1CCc2ccc3c(c21)CCCO3` [Example 2, N-[2-(2,3,8,9-Tetrahydro-7H-pyrano[2,3-g]indol-1-yl)-ethyl]-acetamide hydrochloride] was run?
A: 9.02

Q: And the pKi [2]?
A: 8.31

Q: Which results are given for `CC(=O)NCCN1CCc2ccc3c(c21)CCO3` [Example 3, N-[2-(2,3,7,8-Tetrahydro-1H-furo[2,3-g]indol-1-yl)ethyl]-acetamide]?
A: pIC50 [1]: 10.40; pKi [2]: 9.38

Q: How did the pKi [2] turn out when `CC(=O)NCCN1CCc2cc(Cl)c3c(c21)CCO3` [Example 5, N-[2-(5-Chloro-2,3,7,8-tetrahydro-1H-furo[2,3-g]indol-1-yl)-ethyl]-acetamide] was run?
A: 8.49

Q: With `O=C(NCCN1CCc2ccc3c(c21)CCO3)C1CC1` [Example 6, Cyclopropanecarboxylic acid [2-(2,3,7,8-tetrahydro-1H-furo[2,3-g]indol-1-yl)-ethyl]-amide] as the compound, how does the pIC50 [1] read?
A: 9.70

Q: What about the pKi [2] of the same compound?
A: 8.77
